ChEMBL document CHEMBL2311352, “Discovery of 4-phenyl-2-phenylaminopyridine based TNIK inhibitors” (Bioorg Med Chem Lett, 2013)

Legend:
[1] = biological target: Focal adhesion kinase 1 (Homo sapiens) (UniProt Q05397); assay: Inhibition of FAK (unknown origin) at 1 uM
[2] = biological target: BDNF/NT-3 growth factors receptor (Homo sapiens) (UniProt Q16620); assay: Inhibition of TRKB (unknown origin) at 1 uM
[3] = biological target: Platelet-derived growth factor receptor beta (Homo sapiens) (UniProt P09619); assay: Inhibition of PDGFRbeta (unknown origin) at 1 uM
[4] = biological target: Cyclin-dependent kinase 2/cyclin A (Homo sapiens) (UniProt P24941+P20248+P78396); assay: Inhibition of CDK2/cyclin A (unknown origin) at 1 uM; type: protein-complex assay
[5] = biological target: Insulin-like growth factor 1 receptor (Homo sapiens) (UniProt P08069); assay: Inhibition of IGF1R (unknown origin) at 1 uM
[6] = biological target: TRAF2 and NCK-interacting protein kinase (Homo sapiens, UniProt Q9UKE5); assay: Inhibition of TNIK (unknown origin) by ADP glo luminescent assay
[7] = Apparent permeability across apical to basolateral side in human Caco2 cells; type: ADME, cell-based; conditions: Caco-2
[8] = biological target: Fibroblast growth factor receptor 3 (Homo sapiens) (UniProt P22607); assay: Inhibition of FGFR3 (unknown origin) at 1 uM
Chain of Fibroblast growth factor receptor 3 (Homo sapiens) (P22607 23-806 limits assumed): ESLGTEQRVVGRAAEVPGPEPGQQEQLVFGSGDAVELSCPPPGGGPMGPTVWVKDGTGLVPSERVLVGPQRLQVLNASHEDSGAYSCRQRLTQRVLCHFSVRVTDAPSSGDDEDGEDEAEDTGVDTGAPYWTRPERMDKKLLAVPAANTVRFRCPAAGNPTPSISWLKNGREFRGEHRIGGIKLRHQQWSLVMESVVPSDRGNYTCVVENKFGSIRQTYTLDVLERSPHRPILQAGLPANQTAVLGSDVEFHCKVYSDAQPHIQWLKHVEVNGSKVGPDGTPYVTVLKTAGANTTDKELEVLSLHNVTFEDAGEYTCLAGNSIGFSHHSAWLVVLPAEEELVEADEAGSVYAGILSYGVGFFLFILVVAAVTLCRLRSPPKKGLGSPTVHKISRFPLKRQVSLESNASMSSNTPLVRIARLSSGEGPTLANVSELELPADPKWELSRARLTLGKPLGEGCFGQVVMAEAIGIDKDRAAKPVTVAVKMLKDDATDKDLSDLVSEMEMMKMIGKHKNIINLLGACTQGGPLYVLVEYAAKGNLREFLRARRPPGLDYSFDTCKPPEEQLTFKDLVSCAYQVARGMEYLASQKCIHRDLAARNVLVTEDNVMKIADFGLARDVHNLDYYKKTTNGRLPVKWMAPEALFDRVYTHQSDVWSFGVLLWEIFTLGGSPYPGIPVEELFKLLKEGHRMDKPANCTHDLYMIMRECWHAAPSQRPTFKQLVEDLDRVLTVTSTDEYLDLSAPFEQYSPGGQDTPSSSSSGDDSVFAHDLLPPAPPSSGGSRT

[9] = biological target: Homeodomain-interacting protein kinase 1 (Homo sapiens) (UniProt Q86Z02); assay: Inhibition of HIPK1 (unknown origin) at 1 uM
[10] = biological target: Casein kinase II subunit alpha (Homo sapiens) (UniProt P68400); assay: Inhibition of CK2alpha (unknown origin) at 1 uM
Chain of Casein kinase II subunit alpha (Homo sapiens) (P68400 whole entry, looked up): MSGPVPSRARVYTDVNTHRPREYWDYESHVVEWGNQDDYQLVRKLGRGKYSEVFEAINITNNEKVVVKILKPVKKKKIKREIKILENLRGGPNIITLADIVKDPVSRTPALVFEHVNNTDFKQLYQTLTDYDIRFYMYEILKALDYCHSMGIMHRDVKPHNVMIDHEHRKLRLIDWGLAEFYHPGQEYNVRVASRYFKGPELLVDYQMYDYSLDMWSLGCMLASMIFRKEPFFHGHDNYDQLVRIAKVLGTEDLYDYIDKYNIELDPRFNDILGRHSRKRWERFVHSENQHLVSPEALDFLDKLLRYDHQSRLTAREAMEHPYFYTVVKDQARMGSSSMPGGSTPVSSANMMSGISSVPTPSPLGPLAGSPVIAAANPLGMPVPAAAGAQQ

[11] = biological target: NT-3 growth factor receptor (Homo sapiens) (UniProt Q16288); assay: Inhibition of TRKC (unknown origin) at 1 uM
[12] = biological target: Muscle, skeletal receptor tyrosine-protein kinase (Homo sapiens) (UniProt O15146); assay: Inhibition of MUSK (unknown origin) at 1 uM
[13] = biological target: Tyrosine-protein kinase Fes/Fps (Homo sapiens) (UniProt P07332); assay: Inhibition of FES (unknown origin) at 1 uM
Chain of Tyrosine-protein kinase Fes/Fps (Homo sapiens) (P07332 whole entry): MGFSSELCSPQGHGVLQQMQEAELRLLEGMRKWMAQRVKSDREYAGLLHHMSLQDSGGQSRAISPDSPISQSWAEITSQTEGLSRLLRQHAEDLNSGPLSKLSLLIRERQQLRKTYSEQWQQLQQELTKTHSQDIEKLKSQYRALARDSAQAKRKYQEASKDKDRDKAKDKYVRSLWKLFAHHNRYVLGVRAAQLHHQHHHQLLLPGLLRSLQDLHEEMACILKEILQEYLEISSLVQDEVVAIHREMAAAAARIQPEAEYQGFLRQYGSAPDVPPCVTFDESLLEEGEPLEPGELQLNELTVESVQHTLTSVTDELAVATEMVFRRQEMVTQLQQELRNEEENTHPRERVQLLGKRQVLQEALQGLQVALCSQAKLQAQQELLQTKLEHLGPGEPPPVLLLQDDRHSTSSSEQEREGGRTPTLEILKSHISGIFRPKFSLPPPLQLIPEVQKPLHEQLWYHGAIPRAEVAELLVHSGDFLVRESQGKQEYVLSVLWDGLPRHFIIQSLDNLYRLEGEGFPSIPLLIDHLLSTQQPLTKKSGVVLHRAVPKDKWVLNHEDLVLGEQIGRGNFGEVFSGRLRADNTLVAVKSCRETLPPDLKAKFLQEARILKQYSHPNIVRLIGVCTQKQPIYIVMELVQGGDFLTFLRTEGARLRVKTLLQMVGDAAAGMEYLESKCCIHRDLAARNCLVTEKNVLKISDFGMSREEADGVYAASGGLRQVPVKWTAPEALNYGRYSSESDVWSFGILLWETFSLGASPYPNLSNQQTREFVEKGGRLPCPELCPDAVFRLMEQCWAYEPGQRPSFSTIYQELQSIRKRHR

[14] = biological target: Tyrosine-protein kinase Yes (Homo sapiens) (UniProt P07947); assay: Inhibition of YES (unknown origin) at 1 uM
[15] = biological target: Proto-oncogene tyrosine-protein kinase ROS (Homo sapiens) (UniProt P08922); assay: Inhibition of ROS (unknown origin) at 1 uM
[16] = biological target: Tyrosine-protein kinase ABL1 (Homo sapiens) (UniProt P00519); assay: Inhibition of ABL1 (unknown origin) at 1 uM
[17] = biological target: Tyrosine-protein kinase JAK3 (Homo sapiens) (UniProt P52333); assay: Inhibition of JAK3 (unknown origin) at 1 uM
[18] = biological target: Fibroblast growth factor receptor 1 (Homo sapiens) (UniProt P11362); assay: Inhibition of FGFR1 (unknown origin) at 1 uM
[19] = biological target: Protein-tyrosine kinase 2-beta (Homo sapiens) (UniProt Q14289); assay: Inhibition of PYK2 (unknown origin) at 1 uM
[20] = biological target: Tyrosine-protein kinase Fyn (Homo sapiens) (UniProt P06241); assay: Inhibition of FYN (unknown origin) at 1 uM
Chain of Tyrosine-protein kinase Fyn (Homo sapiens) (P06241 2-537 limits assumed): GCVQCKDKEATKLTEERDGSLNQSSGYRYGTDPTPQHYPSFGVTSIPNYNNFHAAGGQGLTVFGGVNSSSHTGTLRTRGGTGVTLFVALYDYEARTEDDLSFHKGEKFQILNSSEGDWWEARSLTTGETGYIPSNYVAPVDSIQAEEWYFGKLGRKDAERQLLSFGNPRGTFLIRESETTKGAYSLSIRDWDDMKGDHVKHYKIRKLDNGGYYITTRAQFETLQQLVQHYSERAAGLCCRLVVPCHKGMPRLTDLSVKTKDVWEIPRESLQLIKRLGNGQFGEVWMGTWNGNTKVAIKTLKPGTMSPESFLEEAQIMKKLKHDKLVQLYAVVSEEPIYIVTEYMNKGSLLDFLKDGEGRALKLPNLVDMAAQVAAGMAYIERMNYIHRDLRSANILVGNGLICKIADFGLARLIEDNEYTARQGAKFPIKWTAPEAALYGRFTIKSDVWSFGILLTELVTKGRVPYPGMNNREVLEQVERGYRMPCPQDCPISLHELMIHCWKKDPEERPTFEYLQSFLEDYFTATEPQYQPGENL

[21] = biological target: Tyrosine-protein kinase SYK (Homo sapiens) (UniProt P43405); assay: Inhibition of SYK (unknown origin) at 1 uM
[22] = biological target: Cyclin-dependent kinase 4/cyclin D1 (Homo sapiens) (UniProt P11802+P24385); assay: Inhibition of CDK4/cyclin D1 (unknown origin) at 1 uM; type: protein-complex assay
[23] = biological target: Platelet-derived growth factor receptor alpha (Homo sapiens) (UniProt P16234); assay: Inhibition of PDGFRalpha (unknown origin) at 1 uM
[24] = biological target: Macrophage colony-stimulating factor 1 receptor (Homo sapiens) (UniProt P07333); assay: Inhibition of FMS (unknown origin) at 1 uM
[25] = biological target: Ephrin type-A receptor 7 (Homo sapiens) (UniProt Q15375); assay: Inhibition of EPHA7 (unknown origin) at 1 uM
[26] = biological target: Homeodomain-interacting protein kinase 3 (Homo sapiens) (UniProt Q9H422); assay: Inhibition of HIPK3 (unknown origin) at 1 uM
[27] = Apparent permeability across basolateral to apical side in human Caco2 cells; type: ADME, cell-based; conditions: Caco-2
[28] = biological target: Serine/threonine-protein kinase PAK 4 (Homo sapiens) (UniProt O96013); assay: Inhibition of PAK4 (unknown origin) at 1 uM
Chain of Serine/threonine-protein kinase PAK 4 (Homo sapiens) (O96013 whole entry, looked up): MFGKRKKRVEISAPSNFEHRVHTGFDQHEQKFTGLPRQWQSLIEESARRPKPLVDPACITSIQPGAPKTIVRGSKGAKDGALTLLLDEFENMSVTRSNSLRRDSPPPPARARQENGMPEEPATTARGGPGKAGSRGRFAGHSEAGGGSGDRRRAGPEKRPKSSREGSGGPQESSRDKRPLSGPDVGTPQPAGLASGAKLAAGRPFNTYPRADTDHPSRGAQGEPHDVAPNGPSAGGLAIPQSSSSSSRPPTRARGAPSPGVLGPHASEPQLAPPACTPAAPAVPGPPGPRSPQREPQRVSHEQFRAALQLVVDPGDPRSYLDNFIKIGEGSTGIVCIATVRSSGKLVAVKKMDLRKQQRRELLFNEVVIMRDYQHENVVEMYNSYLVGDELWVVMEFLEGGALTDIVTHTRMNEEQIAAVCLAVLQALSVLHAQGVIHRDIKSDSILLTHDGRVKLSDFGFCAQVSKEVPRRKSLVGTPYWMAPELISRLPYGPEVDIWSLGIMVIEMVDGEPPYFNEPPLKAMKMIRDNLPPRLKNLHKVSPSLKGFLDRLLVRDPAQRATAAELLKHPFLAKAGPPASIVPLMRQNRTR

[29] = biological target: Ribosomal protein S6 kinase beta-1 (Homo sapiens) (UniProt P23443); assay: Inhibition of p70S6K (unknown origin) at 1 uM

Chain of Focal adhesion kinase 1 (Homo sapiens) (Q05397 2-1052 limits assumed): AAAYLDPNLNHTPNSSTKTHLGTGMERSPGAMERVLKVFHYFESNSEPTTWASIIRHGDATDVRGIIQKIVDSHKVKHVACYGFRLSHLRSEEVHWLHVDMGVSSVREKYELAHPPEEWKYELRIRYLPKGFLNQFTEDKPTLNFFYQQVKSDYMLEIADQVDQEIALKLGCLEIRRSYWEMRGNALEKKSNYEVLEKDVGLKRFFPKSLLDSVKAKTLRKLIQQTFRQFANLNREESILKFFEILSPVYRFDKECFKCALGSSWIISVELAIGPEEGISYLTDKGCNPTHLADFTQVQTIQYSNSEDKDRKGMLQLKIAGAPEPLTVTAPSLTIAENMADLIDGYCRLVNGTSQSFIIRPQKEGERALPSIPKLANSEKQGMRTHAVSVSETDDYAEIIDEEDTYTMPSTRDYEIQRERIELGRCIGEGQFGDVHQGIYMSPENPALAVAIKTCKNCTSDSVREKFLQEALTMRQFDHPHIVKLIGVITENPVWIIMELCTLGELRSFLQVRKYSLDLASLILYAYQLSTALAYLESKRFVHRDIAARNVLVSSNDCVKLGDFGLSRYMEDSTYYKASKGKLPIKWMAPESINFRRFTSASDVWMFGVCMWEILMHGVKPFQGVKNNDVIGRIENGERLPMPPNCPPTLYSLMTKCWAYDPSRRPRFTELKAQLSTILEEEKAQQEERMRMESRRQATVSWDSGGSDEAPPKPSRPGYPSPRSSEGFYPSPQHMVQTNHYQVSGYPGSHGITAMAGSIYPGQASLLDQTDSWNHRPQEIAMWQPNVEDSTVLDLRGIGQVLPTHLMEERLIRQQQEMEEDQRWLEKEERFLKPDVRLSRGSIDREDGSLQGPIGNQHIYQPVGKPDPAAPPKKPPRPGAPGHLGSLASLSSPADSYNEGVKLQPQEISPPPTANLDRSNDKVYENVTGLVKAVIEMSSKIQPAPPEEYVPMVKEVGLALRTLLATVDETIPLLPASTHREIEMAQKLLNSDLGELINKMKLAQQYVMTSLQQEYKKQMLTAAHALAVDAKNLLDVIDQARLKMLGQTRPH
Chain of BDNF/NT-3 growth factors receptor (Homo sapiens) (Q16620 32-822 limits assumed): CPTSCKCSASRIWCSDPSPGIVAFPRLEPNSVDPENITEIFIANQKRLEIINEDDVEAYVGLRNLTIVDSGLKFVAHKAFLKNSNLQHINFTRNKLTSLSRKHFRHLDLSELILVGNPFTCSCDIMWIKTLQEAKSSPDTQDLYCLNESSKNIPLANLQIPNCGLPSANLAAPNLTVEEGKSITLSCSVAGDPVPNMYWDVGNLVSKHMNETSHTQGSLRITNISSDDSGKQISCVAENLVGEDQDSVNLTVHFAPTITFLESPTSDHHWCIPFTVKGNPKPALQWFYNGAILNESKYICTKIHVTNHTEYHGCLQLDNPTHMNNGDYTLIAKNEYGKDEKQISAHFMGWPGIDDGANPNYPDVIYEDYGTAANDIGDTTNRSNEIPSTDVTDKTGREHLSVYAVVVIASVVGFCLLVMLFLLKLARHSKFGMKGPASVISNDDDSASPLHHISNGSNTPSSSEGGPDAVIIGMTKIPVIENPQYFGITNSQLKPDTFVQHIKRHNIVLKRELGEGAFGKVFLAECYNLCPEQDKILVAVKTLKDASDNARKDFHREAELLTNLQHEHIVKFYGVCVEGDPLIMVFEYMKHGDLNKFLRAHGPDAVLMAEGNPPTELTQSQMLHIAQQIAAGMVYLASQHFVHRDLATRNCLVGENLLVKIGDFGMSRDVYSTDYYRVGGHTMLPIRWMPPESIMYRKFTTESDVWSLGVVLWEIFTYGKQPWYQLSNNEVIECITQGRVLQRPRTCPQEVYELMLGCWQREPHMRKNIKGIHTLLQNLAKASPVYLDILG

- inhibition [1]: 50%
- inhibition [2]: > 80%
- inhibition [3]: > 80%
- inhibition [4]: > 50%
- inhibition [5]: > 80%
- IC50 [6]: 65 nM
- Papp A→B [7]: 8 ×10⁻⁶ cm/s
- inhibition [8]: > 95%
- inhibition [9]: 50%
- inhibition [10]: > 80%
- inhibition [11]: > 95%
- inhibition [12]: > 80%
- inhibition [13]: > 80%
- inhibition [14]: > 80%
- inhibition [15]: > 95%
- inhibition [16]: > 80%
- inhibition [17]: > 95%
- inhibition [18]: > 95%
- inhibition [19]: 50%
- inhibition [20]: 50%
- inhibition [21]: > 80%
- inhibition [22]: > 80%
- inhibition [23]: > 80%
- inhibition [24]: > 80%
- inhibition [25]: 50%
- inhibition [26]: > 80%
- Papp B→A [27]: 7.7 ×10⁻⁶ cm/s
- inhibition [28]: 50%
- inhibition [29]: > 95%
SMILES: COc1cc(Nc2ncc(Cl)c(-c3cccc(CC#N)c3)n2)ccc1N1CCN(C)CC1
